Source: patent US8101550B2, “Anthranilic acid diamide derivative with hetero-aromatic and hetero-cyclic substituents” (Bayer Cropscience AG, priority 2006, dated 2012)

How the values were obtained:
[1] = log P determination by HPLC on reverse-phase column (EEC Directive 79/831 Annex V.A8); assay type: physicochemical; settings: HPLC on reverse-phase column
How it was run: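 Log P was derived from retention times by linear interpolation between successive unbranched alkan-2-one standards (C3–C16). The standards and samples ran on a C18 reverse-phase column at 43 °C with a 10→95% acetonitrile gradient in 0.1% formic acid (pH 2.7). The method follows EEC Directive 79/831 Annex V.A8.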

[2] = test system: caterpillars of the armyworm (Spodoptera frugiperda); assay: Spodoptera frugiperda test (cabbage leaves, immersion); assay type: in vivo; settings: cabbage leaves immersed
Method: (§1) An appropriate preparation of active compound is prepared by mixing 1 part by weight of active compound with the stated amounts of solvent and emulsifier and diluting the concentrate with emulsifier-containing water to the desired concentration.
Cabbage leaves (Brassica oleracea) are treated by immersion into a preparation of active compound at the desired concentration and, are populated with caterpillars of the armyworm (Spodoptera frugiperda) while the leaves are still wet.
After the desired time the effect in % is determined. 100% means that all of the caterpillars have been killed; 0% means that no caterpillars have been killed.
Cabbage leaves (Brassica oleracea) are treated by immersion into a preparation of active compound at the desired concentration and are populated with caterpillars of the armyworm (Spodoptera frugiperda) while the leaves are still wet.

[3] = test system: larvae of the leafminer fly (Liriomyza trifolii); assay: Liriomyza trifolii test; assay type: in vivo; settings: 500 ppm; infested bean leaf discs sprayed
Method: as §1
Bean leaf discs (Phaseolus vulgaris) infested by larvae of the leafminer fly (Liriomyza trifolii) are sprayed with a preparation of active compound at the desired concentration.
After the desired time the effect in % is determined. 100% means that all of the leafminer flies have been killed; 0% means that no leafminer flies have been killed.

[4] = test system: Heliothis virescens eggs; assay: Heliothis virescens test; assay type: in vivo; settings: 300 ppm; eggs treated
Method: (§2) An appropriate preparation of active compound is prepared by mixing the active compound with the stated amounts of solvent and diluting the concentrate with […] water to the desired concentration.
The Heliothis virescens eggs are treated with a preparation of active compound at the desired concentration.
(§3) After the desired time the effect in % is determined. 100% means that all of the eggs/larvae have been killed; 0% means that no eggs/larvae have been killed.

[5] = test system: Myzus persicae; assay: Myzus persicae test; assay type: in vivo; settings: 30 ppm; preparation provided for consumption
Method: as §2
The Myzus persicae is provided with a preparation of active compound at the desired concentration for consumption.
After the desired time the effect in % is determined. 100% means that all of the aphids have been killed; 0% means that no aphids have been killed.

[6] = test system: Aedes aegypti larvae; assay: Aedes aegypti test; assay type: in vivo; settings: 30 ppm; larvae treated
Method: as §2
The Aedes aegypti larvae are treated with a preparation of active compound at the desired concentration.
After the desired time the effect in % is determined. 100% means that all of the Aedes aegypti have been killed; 0% means that no Aedes aegypti have been killed.

[7] = test system: Diabrotica undecimpunctata eggs; assay: Diabrotica undecimpunctata test; assay type: in vivo; settings: 300 ppm; eggs treated
Method: as §2
The Diabrotica undecimpunctata eggs are treated with a preparation of active compound at the desired concentration.
as §3

SMILES | logP [1] | Kill level after 7 d in % ([2]; 100 g/ha) | further results
CNC(=O)c1cc(Cl)cc(C)c1NC(=O)c1cc(Cn2cc(C(F)(F)C(F)(F)F)c(C(F)(F)C(F)(F)F)n2)nn1-c1ncccc1Cl [I-1-3] | 4.39 | 100% | Kill level after 7 d in % ([2]; 0.8 g/ha): 100%; Kill level after 7 d in % [3]: 98%
CNC(=O)c1cc(Cl)cc(C)c1NC(=O)c1cc(Cn2cc(Cl)cn2)nn1-c1ncccc1Cl [I-1-4] | 2.54 | 100% | Kill level after 7 d in % [3]: 95%
Cc1cc(Br)cc(C(=O)NC(C)C)c1NC(=O)c1cc(Cn2cc(C(F)(F)C(F)(F)F)c(C(F)(F)C(F)(F)F)n2)nn1-c1ncccc1Cl [I-1-13] | 4.98 | 100% | Kill level after 6-7 d in % [4]: 100%; Kill level after 6-7 d in % [5]: 100%; Kill level after 2-4 d in % [6]: 100%; Kill level after 2-5 d in % [7]: 100%
Cc1cc(Cl)cc(C(=O)NC(C)C)c1NC(=O)c1cc(Cn2cc(I)c(C(F)(F)C(F)(F)F)n2)nn1-c1ncccc1Cl [I-1-14] | 4.29 | 100% | Kill level after 6-7 d in % [4]: 100%; Kill level after 6-7 d in % [5]: 100%; Kill level after 2-4 d in % [6]: 100%; Kill level after 2-5 d in % [7]: 100%
Cc1cc(Cl)cc(C(=O)NC(C)C)c1NC(=O)c1cc(Cn2cc(Cl)c(C(F)(F)F)n2)nn1-c1ncccc1Cl [I-1-15] | 3.85 | 100% | Kill level after 6-7 d in % [4]: 100%; Kill level after 6-7 d in % [5]: 100%; Kill level after 2-4 d in % [6]: 100%; Kill level after 2-5 d in % [7]: 100%
Cc1cc(Br)cc(C(=O)NC(C)C)c1NC(=O)c1cc(Cn2nc(C(F)(F)F)nc2C(F)(F)F)nn1-c1ncccc1Cl [I-1-22] | 3.91 | 100% | Kill level after 7 d in % ([2]; 4 g/ha): 100%; Kill level after 7 d in % [3]: 98%
CNC(=O)c1cc(Cl)cc(C)c1NC(=O)c1cc(Cn2nc(C(F)(F)C(F)(F)F)cc2C(F)(F)C(F)(F)F)nn1-c1ncccc1Cl [I-1-27] | 4.45 |  | Kill level after 7 d in % ([2]; 20 g/ha): 83%
Cc1cc(Cl)cc(C(=O)NC(C)C)c1NC(=O)c1cc(Cn2nc(C(F)(F)C(F)(F)F)c(C(F)(F)F)c2F)nn1-c1ncccc1Cl [I-1-28] | 4.63 | 100% | 
Cc1cc(Cl)cc(C(=O)NC(C)C)c1NC(=O)c1cc(Cn2nc(C(F)(F)C(F)(F)F)nc2C(F)(F)C(F)(F)F)nn1-c1ncccc1Cl [I-1-29] | 4.64 | 100% | 
CNC(=O)c1cc(Cl)cc(C)c1NC(=O)c1cc(Cn2cc(Cl)c(C(F)(F)C(F)(F)F)n2)nn1-c1ncccc1Cl [I-1-30] | 3.77 | 100% | 
Cc1cc(Cl)cc(C(=O)NC(C)C)c1NC(=O)c1cc(Cn2cc(Cl)c(C(F)(F)C(F)(F)F)n2)nn1-c1ncccc1Cl [I-1-31] | 4.21 | 100% | 
Cc1cc(Cl)cc(C(=O)NCC#N)c1NC(=O)c1cc(Cn2cc(Cl)c(C(F)(F)C(F)(F)F)n2)nn1-c1ncccc1Cl [I-1-32] | 3.70 | 100% | 
Cc1cc(Br)cc(C(=O)NCC#N)c1NC(=O)c1cc(Cn2cc(C(F)(F)C(F)(F)F)c(C(F)(F)C(F)(F)F)n2)nn1-c1ncccc1Cl [I-1-33] | 4.28 | 100% | 
CNC(=O)c1cc(Cl)cc(C)c1NC(=O)c1cc(Cn2cc(Br)c(C(F)(F)C(F)(F)F)n2)nn1-c1ncccc1Cl [I-1-34] | 3.80 | 100% | 
CNC(=O)c1cc(Cl)cc(C)c1NC(=O)c1cc(Cn2nc(C(F)(F)F)nc2C(F)(F)F)nn1-c1ncccc1Cl [I-1-35] | 3.43 | 100% | 
CNC(=O)c1cc(Br)cc(C)c1NC(=O)c1cc(Cn2nc(C(F)(F)F)nc2C(F)(F)F)nn1-c1ncccc1Cl [I-1-36] | 3.52 | 100% | 
Cc1cc(Br)cc(C(=O)NC(C)C)c1NC(=O)c1cc(Cn2nc(C(F)(F)C(F)(F)F)nc2C(F)(F)C(F)(F)F)nn1-c1ncccc1Cl [I-1-37] | 4.73 | 100% | 
CNC(=O)c1cc(Br)cc(C)c1NC(=O)c1cc(Cn2nc(C(F)(F)C(F)(F)F)nc2C(F)(F)C(F)(F)F)nn1-c1ncccc1Cl [I-1-39] | 4.31 | 100% | 
Cc1cc(Cl)cc(C(=O)NC(C)C)c1NC(=O)c1cc(Cn2nc(C(F)(F)F)nc2C(F)(F)F)nn1-c1c(Cl)cccc1Cl [I-1-40] | 4.58 | 100% | 
